Key:
circulating lymphocytes = assay: Effects on lymphocytes in mice: whole blood counts (CBC); assay type: in vivo, mice (F1 hybrids of 129/B6 strain)
Procedure: Unless otherwise indicated, the term “circulating lymphocyte reduction factor” or “CLRF” means the decrease in the number of circulating lymphocytes in mice caused by oral administration of a single dose of a compound at 100 mg/kg, as determined by the method described in the Examples, below. Compounds were administered by oral gavage or in drinking water. For oral dosing experiments, compounds were resuspended from crystals at 10 mg/ml in vehicle (e.g., water). Mice (F1 hybrids of 129/B6 strain) were gavaged with a single 100 mg/kg dose of compound (equivalent to 100 mpk of the free base for each compound) or a vehicle-only control, and returned to their cages. Mice were anesthetized using isofluorane eighteen hours after dosing and tissues were collected for analysis as described below. For drinking water studies, compounds were dissolved at 50 mg/L in acidified water (pH=2.8) containing 10 g/L glucose. The mice were allowed free access to compound-containing water (or glucose solution as a control) for 72 hours. At the end of 72 hours, tissues were collected for analysis. CBC measurements were obtained as follows. Mice were anesthetized with isofluorane and blood was collected from the retroorbital plexus into EDTA blood collection tubes (Capiject-MQK, Terumo Medical Corp., Elkton, Md.). […]

immunological effects = settings: studies in humans; Thuvander 1994, Houben 1992; cited from earlier work
S1P lyase = biological target: T1, S1P lyase (Mus musculus, UniProt Q8R0X7); settings: when administered to mice; Schwab et al. 2005; cited from earlier work
T1 construct: host or cells: mice (in vivo)
T1 sequence (Q8R0X7 1-568): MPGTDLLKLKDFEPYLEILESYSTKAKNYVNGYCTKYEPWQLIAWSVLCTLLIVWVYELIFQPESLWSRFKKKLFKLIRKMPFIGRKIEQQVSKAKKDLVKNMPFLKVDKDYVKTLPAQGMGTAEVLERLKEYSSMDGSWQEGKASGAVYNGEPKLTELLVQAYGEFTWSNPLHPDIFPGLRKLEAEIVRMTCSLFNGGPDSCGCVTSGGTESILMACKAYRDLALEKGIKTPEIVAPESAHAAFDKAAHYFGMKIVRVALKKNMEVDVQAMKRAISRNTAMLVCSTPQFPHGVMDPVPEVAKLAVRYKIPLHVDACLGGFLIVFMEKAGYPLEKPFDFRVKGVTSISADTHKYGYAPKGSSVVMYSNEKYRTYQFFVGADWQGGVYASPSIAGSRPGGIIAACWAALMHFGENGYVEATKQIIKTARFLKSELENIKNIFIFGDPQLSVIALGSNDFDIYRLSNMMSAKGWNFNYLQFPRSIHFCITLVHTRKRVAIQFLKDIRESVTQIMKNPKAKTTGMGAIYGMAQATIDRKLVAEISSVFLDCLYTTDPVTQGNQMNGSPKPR

[1] = system: lymphocyte egress from the thymus; assay: Effects on lymphocytes in mice: FACS of thymus T cells; assay type: in vivo, mice (F1 hybrids of 129/B6 strain); settings: administered in drinking water; FIGS. 1-3
Procedure: Compounds were administered by oral gavage or in drinking water. For oral dosing experiments, compounds were resuspended from crystals at 10 mg/ml in vehicle (e.g., water). Mice (F1 hybrids of 129/B6 strain) were gavaged with a single 100 mg/kg dose of compound (equivalent to 100 mpk of the free base for each compound) or a vehicle-only control, and returned to their cages. Mice were anesthetized using isofluorane eighteen hours after dosing and tissues were collected for analysis as described below. For drinking water studies, compounds were dissolved at 50 mg/L in acidified water (pH=2.8) containing 10 g/L glucose. The mice were allowed free access to compound-containing water (or glucose solution as a control) for 72 hours. At the end of 72 hours, tissues were collected for analysis. Flow cytometry (FACS) measurements were obtained as follows. Twenty five μl whole blood was lysed by hyoptonic shock, washed once in 2 ml FACS wash buffer (FWB: PBS/0.1% BSA/0.1% NaN3/2 mM EDTA) and stained for 30 minutes at 4° C. in the dark with a combination of fluorochrome-conjugated antibodies diluted in 50 μl FWB. After staining, the cells were washed once with 2 ml FWB and resuspended in 300 μl FWB for acquisition. […] Samples were analyzed using a FACSCalibur flow cytometer and CellQuest Pro software (Becton Dickinson Immunocytometry Systems, San Jose, Calif.). […]

[2] = system: lymphocytes / mature T cells in the thymus; settings: administration to rats and mice; cited from earlier work

Row | SMILES | effect on circulating lymphocytes (circulating lymphocytes) | immunological effects (immunological effects) | S1P lyase activity (S1P lyase) | effect on lymphocyte egress from the thymus [1] | lymphopenia [2] | mature T cells in the thymus [2]
1 | CC(=O)c1nc(C)c([C@@H](O)[C@H](O)[C@H](O)CO)s1 [Compound 2, 1-(4-methyl-5-((1S,2R,3R)-1,2,3,4-tetrahydroxybutyl)thiazol-2-yl)ethanone] | little or no effect on circulating lymphocytes | – | – | – | – | –
2 | CC(=O)c1nc(C(O)C(O)C(O)CO)c[nH]1 (stereo not shown) [THI, 2-acetyl-4-tetrahydroxybutylimidazole] | capable of reducing circulating lymphocytes in mice | no immunological effects | inhibits S1P lyase activity | diminished lymphocyte egress from the thymus | induces lymphopenia | causes the accumulation of mature T cells in the thymus

Reference: patent US20070208063A1, “Imidazole-based compounds, compositions comprising them and methods of their use” (priority 2006, published 2007)
